This note sets out measurements from publication PMC7501296, “Rapid and direct control of target protein levels with VHL-recruiting dTAG molecules” (Nature Communications, 2020).

Molecules are shown by their SMILES. Several values for one entry are separate records, joined by “and”; a condition that tells them apart may be missing. Equal entries are not always repeated.

The target of one assay is T1, FKBP12^WT-Nluc (Homo sapiens, UniProt P62942).
T1 construct: expressed in transfected cells; host or cells: 293FT
As to the kind of experiment: FKBP12WT-Nluc dual luciferase assay (293FT). The format is cell-based. To be noted: 24 h; for DMSO-normalized ratio of Nluc/Fluc signal: 293FT FKBP12WT-Nluc. In a few lines:
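293FT cells expressing FKBP12^WT-Nluc or FKBP12^F36V-Nluc with Fluc were treated with compound for 24 h at 37 °C. Fluc, then Nluc, luminescence was read with Dual-Glo reagents. Values are DMSO-normalised Nluc/Fluc ratios.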

The subject of assay [1] is PATU-8902 LACZ-FKBP12^F36V clone. As to the kind of experiment: Quantitative MS proteomics, PATU-8902 LACZ-FKBP12F36V clone. The settings on record: for TMT intensity per TMT channel: PATU-8902 LACZ-FKBP12F36V samples, biological replicates. Format: cell-based, Homo sapiens. The procedure: Cell pellets from PATU-8902 and EWS502 cells were lysed using 8 M urea, 200 mM 4-(2-hydroxyethyl)-1-piperazinepropanesulfonic acid (EPPS) at pH 8.5 with protease inhibitors. Samples were further homogenized and DNA was sheered via sonication using a probe sonicator (20 × 0.5 s pulses; level 3). Total protein was determined using a BCA assay and stored at −80 °C until future use. A total of 100 µg of protein was aliquoted for each condition and TMT channel for further downstream processing. Protein extracts were reduced using 10 mM dithiothreitol (DTT) for 30 min at room temperature. Next, samples were alkylated with 20 mM iodoacetamide for 45 min in the dark at room temperature. To facilitate the removal of incompatible reagents, proteins were precipitated using chloroform methanol. Briefly, to 100 µL of each sample, 400 µL of methanol was added, followed by 100 µL of chloroform with thorough vortexing. Next, 300 µL of HPLC grade water was added and samples were vortexed thoroughly. Each sample was centrifuged at 14,000 × g for 5 min at room temperature. The upper aqueous layer was removed and the protein pellet was washed twice with methanol and centrifuged at 14,000 × g for 5 min at room temperature. Protein pellets were resolubilized in 200 mM EPPS buffer and digested overnight with Lys-C (1:100, enzyme:protein ratio) at room temperature. The next day, trypsin (1:100 ratio) was added and incubated at 37 °C for an additional 6 h in a ThermoMixer set to 1000 RPM.
To each digested sample, 30% anhydrous acetonitrile was added and 100 µg of peptides were labeled using 200 µg of TMT reagent (TMT1-TMT11). Following labeling, a 5% hydroxylamine solution was used to quench excess TMT reagent. To equalize protein loading, a ratio check was performed by pooling 2 µg of each TMT-labeled sample. Samples were pooled and desalted using in-house packed C18 StageTips and analyzed by LC-MS/MS. Normalization factors were calculated from this label check, samples were mixed 1:1 across all TMT channels and desalted using a 100 mg Sep-Pak solid phase extraction cartridge. Eluted pooled peptides were further fractionated with basic-pH reverse-phase (bRP) HPLC using an Agilent 300 extend C18 column and collected into a 96 deep-well plate. Samples were consolidated into 24 fractions, and 12 nonadjacent fraction were desalted using StageTips prior to analyses using LC-MS/MS[35]–[37].
All mass spectrometry data was acquired using an Orbitrap Fusion mass spectrometer in-line with a Proxeon NanoLC-1000 UHPLC system. Peptides were separated using an in-house 100 µm capillary column packed with 40 cm of Accucore 150 resin (2.6 µm, 150 Å) (Thermo Fisher Scientific) using a 180 min LC gradient per fraction. Eluted peptides were acquired using synchronous precursor selection (SPS-MS3) method for TMT quantification. Briefly, MS1 spectra were acquired at 120 K resolving power with a maximum of 50 ms in the Orbitrap. MS2 spectra were acquired by selecting the top ten most abundant features via collisional induced dissociation (CID) in the ion trap using an automatic gain control (AGC) of 15 K, quadrupole isolation width of 0.7 m/z and a maximum ion time of 100 ms. For MS3 acquisition, a synchronous precursor selection of ten fragment ions was acquired with an AGC of 150 K for 150 ms and a normalized collision energy of 55.
All acquired raw data were converted to mzXML using Raw File Reader (v3.0.77). Spectra were processed using Comet (2019.01.5)[39]–[41], search results were filtered using the LDA function MASS Package in R, and data were processed using an in-house informatics pipeline[42]–[44]. Custom code was not developed in this study. Briefly, peptide spectral libraries were first filtered to a peptide false discovery rate (FDR) of less than 1% using linear discriminant analysis employing a target decoy strategy. […]

Assay [2] has as its system PATU-8902 FKBP12^F36V-KRAS^G12V; KRAS^-/- clone. As to the kind of experiment: Antiproliferation, PATU-8902 FKBP12F36V-KRASG12V; KRAS-/- clone, 3D-spheroid (CellTiter-Glo). The format is cell-based. The settings on record: for DMSO-normalized antiproliferation: FKBP12F36V-KRASG12V, KRAS-/-, 3D-spheroid. Summed up: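 Viability of cells grown as ultra-low adherent 3D-spheroids was determined with CellTiter-Glo (Promega). Luminescence readings were taken on an Envision 2104 plate reader (PerkinElmer) and a Fluostar Omega Reader (BMG Labtech), and the resulting data were processed in GraphPad PRISM v8 to assess effects on cell proliferation.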

Where [3] appears, read: protein LACZ-FKBP12F36V, 500 nM, 4 h.

T1 sequence (P62942 2-108 limits assumed): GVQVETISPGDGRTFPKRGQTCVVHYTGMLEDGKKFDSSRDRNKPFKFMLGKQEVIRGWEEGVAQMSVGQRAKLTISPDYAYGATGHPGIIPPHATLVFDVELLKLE

Regarding `CC[C@H](C(=O)N1CCCC[C@H]1C(=O)O[C@H](CCc1ccc(OC)c(OC)c1)c1ccccc1OCC(=O)NCCCCCCOc1cccc2c1C(=O)N(C1CCC(=O)NC1=O)C2=O)c1cc(OC)c(OC)c(OC)c1` (some centres unmarked) [dTAG-13], the “DMSO-normalized ratio of Nluc/Fluc signal” value is 68.0018 and 52.1082 and 49.2679 and 67.0893 at FKBP12^WT-Nluc (log10[compound] (M) -5.30103, single replicates); 39.4179 and 40.0508 and 57.6875 and 62.3631 at FKBP12^WT-Nluc (log10[compound] (M) -5.80103, single replicates); 61.6189 and 51.8679 and 71.8125 and 45.1167 on FKBP12^WT-Nluc (log10[compound] (M) -6.30103, single replicates); 68.675 and 79.0108 and 77.6288 and 57.0488 at FKBP12^WT-Nluc (log10[compound] (M) -6.80103, single replicates); 95.7266 and 46.8613 and 87.0104 and 66.427 on FKBP12^WT-Nluc (log10[compound] (M) -7.30103, single replicates); 86.0033 and 61.1842 and 69.3744 and 83.8873 on FKBP12^WT-Nluc (log10[compound] (M) -7.80103, single replicates). Also, the “DMSO-normalized ratio of Nluc/Fluc signal” value at FKBP12^WT-Nluc (log10[compound] (M) -8.30103, single replicates) was 94.8586 and 72.3429 and 122.034 and 94.0336; on FKBP12^WT-Nluc (log10[compound] (M) -8.80103, single replicates), 101.052 and 65.5195 and 71.6364 and 55.6566; at FKBP12^WT-Nluc (log10[compound] (M) -9.30103, single replicates), 113.35 and 121.354 and 97.4549 and 93.7336; at FKBP12^WT-Nluc (log10[compound] (M) -9.80103, single replicates), 115.063 and 75.6978 and 95.0976 and 66.8915. The “TMT intensity per TMT channel” value in assay [1] (protein CDK12) was 2762.51 and 2603.47; in assay [1] (protein INCENP) it was 2716.3 and 2681.24; in assay [1] (protein IRS2) it was 372.779 and 399.852; in assay [1] (protein SLC12A2), 1746.63 and 1711.2; in assay [1] (protein SLC15A4), 223.037 and 230.942. Also, the DMSO-normalized antiproliferation in assay [2] (log10[compound] (M) -5.69897, replicate values) was 12.7187 and 7.467 and 16.3605 and 9.962; in assay [2] (log10[compound] (M) -6.19897, replicate values), 11.9335 and 12.0003 and 12.0114 and 13.9827; in assay [2] (log10[compound] (M) -6.69897, replicate values) it was 14.0106 and 15.4027 and 13.0027 and 15.9484; in assay [2] (log10[compound] (M) -7.19897, replicate values), 14.0384 and 16.4385 and 16.9619 and 11.7776; in assay [2] (log10[compound] (M) -7.69897, replicate values), 14.9517 and 15.5419 and 18.3931 and 15.5976; in assay [2] (log10[compound] (M) -8.19897, replicate values) it was 24.6577 and 23.0874 and 23.2266 and 22.4971. Besides, the DMSO-normalized antiproliferation in assay [2] (log10[compound] (M) -8.69897, replicate values) was 42.8837 and 45.8128 and 51.5651 and 55.5467; in assay [2] (log10[compound] (M) -9.19897, replicate values) it was 69.8747 and 70.4761 and 56.6493 and 74.3184; in assay [2] (log10[compound] (M) -9.69897, replicate values) it was 76.2117 and 76.4178 and 69.3902 and 68.6162; in assay [2] (log10[compound] (M) -10.199, replicate values) it was 73.2492 and 74.079 and 68.7888 and 65.637.

As to `CC[C@H](C(=O)N1CCCC[C@H]1C(=O)O[C@H](CCc1ccc(OC)c(OC)c1)c1ccccc1OCC(=O)NCCCCCCC(=O)N[C@H](C(=O)N1C[C@H](O)C[C@H]1C(=O)N[C@@H](C)c1ccc(-c2scnc2C)cc1)C(C)(C)C)c1cc(OC)c(OC)c(OC)c1` [dTAG^V-1], the “Effect on FKBP12WT-Nluc (in words)” value on FKBP12^WT-Nluc (293FT) is recorded as “no effects”. In addition, in assay [1] (500 nM, 4 h), the “Protein levels of VHL or VHL-regulated targets” value is reported as “No significant changes”. In addition, the “log2 (Fold change) compared to DMSO” value in assay [1] (protein BCAR3, 500 nM, 4 h) is 0.1578; in assay [1] (protein CYBA, 500 nM, 4 h), -0.2931; in assay [1] (setting [3]), -1.082; in assay [1] (protein RAB18, 500 nM, 4 h), -0.08378; in assay [1] (protein SEPTIN10, 500 nM, 4 h) it was 0.1418. Also, the “TMT intensity per TMT channel” value in assay [1] (protein CDK12) is 2772.29 and 2668.65 and 2839.83; in assay [1] (protein INCENP) it was 2143.95 and 2638.07 and 2856.47; in assay [1] (protein IRS2), 352.3 and 336.062 and 338.748; in assay [1] (protein SLC12A2), 1789.71 and 1681.54 and 1827.76; in assay [1] (protein SLC15A4) it was 231.802 and 205.301 and 235.055. Further, the “Fold change < -2” value in assay [1] (setting [3]) is recorded as “+ (Fold change in which '+' refers to fold change < -2.)”. For the same molecule, in assay [2] (2D-monolayer and 3D-spheroid cultures, 120 h), the “Cell proliferation upon FKBP12F36V-KRASG12V degradation” value is “diminished cell proliferation”. Also, the DMSO-normalized antiproliferation in assay [2] (120 h, log10[compound] (M) -5.69897, single replicates) is 14.2222 and 15.5085 and 18.1313 and 19.3564; in assay [2] (120 h, log10[compound] (M) -6.19897, single replicates), 19.4455 and 15.9874 and 15.9651 and 15.7814; in assay [2] (120 h, log10[compound] (M) -6.69897, single replicates), 16.8171 and 16.5888 and 12.056 and 15.8705; in assay [2] (120 h, log10[compound] (M) -7.19897, single replicates), 11.0759 and 11.8444 and 17.6524 and 14.6677; in assay [2] (120 h, log10[compound] (M) -7.69897, single replicates), 20.7875 and 17.3072 and 22.4693 and 16.2436.
